What all share (format): cell-based, human
Data set [1] deals with HeLa cells. Description: Cell viability assay (CellTiter-GLO) in HeLa cells. Conditions: 72 h, 24 nM to 100 μM. How it is done: (§1) FIGS. 12A-12E show the results of the Cell viability assays. Specifically, HeLa cells were incubated with: (FIG. 12A) compound 9; (FIG. 12B) colibactin 742 (4); (FIG. 12C) compound 22; (FIG. 12D) compound 23; or (FIG. 12E) compound 24 at 24 nM-100 μM for 72 h, according some embodiments. The cells were then incubated with CTG reagent and the luminescence was measured. Results were normalized to DMSO control (0.1%, 0% effect) tamoxifen (60 μM, 100% effect). The points are the averages of twelve measurements (triplicates of four). The lines are four parameters logistic regression (4PL) fit. Error bars represent 95% confidence ranges.
(§2) Experiments to determine if the cyclized and linear forms (colibactin 742 (4) and 9, respectively) are cytotoxic were conducted. As discussed above, the timing of the cyclization events that form the colibactin warheads is not known. To probe this, the instant study measured the cytotoxicity of both the linear precursor 9 and colibactin 742 (4) toward human cervical cancer cells (HeLa). The compounds were incubated for 72 h at concentrations ranging from 24 nM to 100 μM. Cell viability was measured using CellTiter GLO assay and normalized to tamoxifen (60 μM, set at 100% effect) and methyl sulfoxide (DMSO, set at 0% effect). […] Additionally, this observation further supports the notion that while the C36-C37 1,2-diketone may dictate colibactin's half-life within the gut, it may not play a critical role in DNA damage.
(§3) Hela cells were grown in Dulbecco's Modified Eagle Medium (DMEM) supplemented with fetal bovine serum (FBS, 10%) and penicillin-streptomycin (0.1%) at 37° C. in a 95% humidity atmosphere under 5% CO2 environment. Cytotoxicity was determined using a CellTiter-GLO Assay. Cells were seeded at a density of 400 cells to achieve total well volumes of 20 μL in 384-well plates (black with an optically clear bottom, Greiner Bio One 781091) using a Thermo Combidrop liquid dispenser and grown for […] at 37° C., 5% CO2. Cells were grown for 24 h, followed by the addition of test compounds using an Echo acoustic liquid handler (Labcyte). For each tested drug concentration, a 20 nL aliquot of the 1000× stock was added to 20 μL of cells to provide a final DMSO concentration of 0.1%. The compounds were incubated for 72 h at concentrations ranging from 24 nM to 100 μM. Each plate contained negative vehicle control wells (0.1% DMSO) and positive control wells (60 μM tamoxifen). After 72 h, the cells were treated with 10 μL CTG reagent. […] The resulting luminescence was measured using a plate reader (Infinite M1000, TECAN Group AG). Biological triplicates, each measured four times (N=12), for each compound were recorded for each concentration and IC50 values were determined using Prism 9 (Graph Pad) fit with a four parameters nonlinear regression.
Background: Cellular ATP, detected with luciferase, serves as a proxy for viable cell number.

In data set [2] the test system is HeLa cells. Description: Cell cycle analysis (DNA content histograms) in HeLa cells. The conditions noted are these: >11 μM. How it is done: FIGS. 7A-7B evaluates the Colibactin 742 (4) and its linear precursor 9 recapitulate the clb phenotype. […] HeLa cells were treated with the linear precursor 9 (1-100 μM), colibactin 742 (4) (1-100 μM) or MMC (150 nM) for 4 h. The cells were then washed and incubated for 20 h before immunofluorescence imaging. Cells were considered positive when >5 FANCD2 or γH2AX foci formed. Means and standard deviations of results from at least three independent experiments are shown. FIG. 7B depicts the DNA content histograms upon treatment with colibactin 742 (4, 11 μM) or 9 (11 μM) quantification of the sub-population of the histograms.
DNA content histograms and quantification of the sub-population of the histograms.
It has also been reported that clb^+ bacteria induce cell cycle arrest at the G2/M phase and eventual mitotic catastrophe.

Data set [3] can be described thus: Cell viability assay (CellTiter-GLO) in HeLa cells. Conditions: human, 72 h, 24 nM to 100 μM, normalized to tamoxifen 60 μM and DMSO, read-out: half-maximal inhibitory potency (IC50), cytotoxicity. How it is done: as §1, §2, §3

Molecules are shown by their SMILES.

As to `C[C@H]1CCC(C2=C(CC(=O)NCC(=O)c3csc(CCc4csc(CNC(=O)CC5=C(C6=N[C@@H](C)CC6)C(=O)NC5(C)C)n4)n3)C(C)(C)NC2=O)=N1` [compound 22], in the data set with HeLa cells [1], the cytotoxicity result was “showed no toxicity”.

The term IC50 denotes the concentration at which inhibition is half-maximal. For the compound `C[C@H]1CCC(CC(=O)NC2(C(=O)CC(=O)NCC(=O)c3csc(CCc4csc(CNC(=O)CC(=O)C5(NC(=O)CC6=N[C@@H](C)CC6)CC5)n4)n3)CC2)=N1` [compound 9], the “cell cycle arrest at G2/M” value in the data set with HeLa cells [2] was “accumulation of cells in G2”. For the same compound, the IC50 in data set [3] came out at 7.2 ± 1.7 µM. Consider `CCOC(=O)c1nc(C2(O)CNC(=O)C2C2=C(C3=N[C@@H](C)CC3)C(=O)NC23CC3)cs1` (some centres unmarked) [compound 24], for which the cytotoxicity entry in the data set on HeLa cells [1] was “showed no toxicity”. Consider `CCOC(=O)c1csc(CNC(=O)CC2=C(C3=N[C@@H](C)CC3)C(=O)NC23CC3)n1` [compound 23, reference compound], for which the IC50 in data set [3] was determined as 8.4 ± 2.4 µM.

Source of the values: patent US20250026747A1, “COLIBACTIN DERIVATIVES AND METHODS OF TREATING, AMELIORATING, AND/OR PREVENTING CANCER” (priority 2021, published 2025).
